Assay results taken from US20100249408A1, “USE OF NOVEL COMPOUND HAVING AFFINITY FOR AMYLOID, AND PROCESS FOR PRODUCTION OF THE SAME” (NIHON MEDI-PHYSICS CO., LTD., priority 2007, published 2010).
Blank lines part the entries; values can stand above or below the compound they belong to.

How the values were obtained:
[1] = target: T1, amyloid (aggregated Aβ1-40) (Homo sapiens, UniProt P05067); assay: Measurement of amyloid affinity: in vitro binding test, inhibition of [125I]3′-I-BTA-0 binding
T1 construct: Aβ1-40 (Peptide Institute) was dissolved in phosphate buffer (pH 7.4); purchased Peptide Institute
Method: Affinity of the present compounds with amyloid was examined by the following in vitro binding tests.
(1) Aβ1-40 (Peptide Institute) was dissolved in phosphate buffer (pH 7.4) and shaken at 37° C. for 62-72 hours, to obtain a suspension of aggregated Aβ (concentration: 1 mg/mL equivalent, hereinafter referred to as amyloid suspension in these Examples).
(3) According to the method described in a literature (Wang, Y., et al., J. Labeled Compounds Radiopharmaceut. 44, 5239 (2001)), [^125I]2-(3′-iodo-4′-aminophenyl)benzothiazole (hereinafter referred to as [^125I]3′-I-BTA-0) was prepared from a labeling precursor 2-(4′-aminophenyl)benzothiazole, and dissolved in ethanol. [^125I]sodium iodide of 12-71 MBq (10-30 μL in volume) was used for the production, to obtain [^125I]3′-I-BTA-0 of 1-22 MBq immediately after the synthesis.
(5) Samples in which [^125I]3′-I-BTA-0, each compound for evaluation and amyloid were dissolved in a 0.1% bovine serum albumin-containing phosphate buffer (pH 7.4) at final concentrations shown in Table 2 were prepared. The resulting samples were placed in each well (about 0.3 mL in volume) of a 96-well microplate.
(6) The microplate filled with the sample solutions was shaken at a given rate (400 rpm) at 22° C. for 3 hours. Then, each sample solution was filtered through a glass fiber filter (trade name: Mulutiscreen™-FC, manufactured by Millipore), to separate the [^125I3′-I-BTA-0 attached to amyloid from the [^125I]3′-I-BTA-0 free from amyloid.
(7) The glass fiber filter used for the filtration of each sample solution was washed with a 0.1% bovine serum albumin-containing phosphate buffer (pH 7.4) (0.5 mL×5), and radioactivity of the glass fiber filter was measured with an autowell gamma system (manufactured by Aloka, Type: ARC-301B).
(8) Separately, a solution containing 15 μmol/L of 6-Me-BTA-2, 400 pmol/L of [^125I]3′-I-BTA-0 and 1 μmol/L of Aβ1-40 in a 0.1% bovine serum albumin-containing phosphate buffer (pH 7.4) was prepared and subjected to the same procedures as described above in (6) and (7) to measure a radioactivity level. The measured radioactivity level was defined as the background radioactivity level, and used in the calculation of the inhibition ratio (hereinafter referred to as BG).
(9) Using the radioactivity levels measured above in (7) and (8), the inhibition ratio was determined by the following formula (1).
A graph in which values converted by probit transformation from the obtained inhibition ratios were plotted relative to logarithms of concentrations of compounds for evaluation was prepared to obtain an approximate straight line by the least square method. Using the line, the concentration of each compound for evaluation was determined, at which the radioactivity level is half of the level of the sample free from each compound for evaluation, and was defined as a 50% inhibition concentration of each compound (hereinafter referred to as IC50% value). Using the value as an indicator, affinity of each compound for evaluation with amyloid (aggregated Aβ1-40) was evaluated.

[2] = system: Salmonella typhimurium TA98; assay: Reverse mutation test (Ames test), TA98; type: cell-based; conditions: maximum 5000 μg/plate
Method: (§1) In order to examine gene mutagenicity of Compounds 1, 2 and 4, reverse mutation test using Salmonella typhimurium TA98 and TA100 (hereinafter referred to as Ames test) was conducted.
(§2) The test was conducted without addition of S9mix and with addition of S9mix. Dimethylsulfoxide was used as a negative control. A positive control was 2-(2-furyl)-3-(5-nitro-2-furyl)acrylamide in case S9mix was not added, and 2-aminoanthracene in case S9 mix was added.
(§3) The amount of each sample to be added to the test plate was 7 dosages (geometric ratio 4) with the maximum dose being 5000 μg/plate. After a sample to be examined and a strain (TA98 or TA100), or a sample to be examined, S9mix and the strain were mixed together, the mixture was multilayered using soft agar on a medium of a test plate, and then incubated at 37° C. for 48 hours.
(§4) In order to examine gene mutagenicity of Compound 8, reverse mutation test using Salmonella typhimurium TA98 and TA100 (hereinafter referred to as Ames test) was conducted.
(§5) The test was conducted without addition of S9mix and with addition of S9mix. Dimethylsulfoxide was used as a negative control. A positive control was 2-(2-furyl)-3-(5-nitro-2-furyl)acrylamide in case S9mix was not added, and 2-aminoanthracene in case S9mix was added.
as §3, with “Compound 8” for “each sample”, “3)” for “4)”, “Compound 8” for “a sample to be examined”, “Compound 8,” for “a sample to be examined,”

[3] = system: Salmonella typhimurium TA100; assay: Reverse mutation test (Ames test), TA100; type: cell-based; conditions: maximum 5000 μg/plate
Method: as §1, §2, §3, §4, §5
as §3, with “Compound 8” for “each sample”, “3)” for “4)”, “Compound 8” for “a sample to be examined”, “Compound 8,” for “a sample to be examined,”

[4] = system: Salmonella typhimurium TA98 and TA100; assay: Reverse mutation test (Ames test), overall judgment; type: cell-based; conditions: TA98 and TA100, with and without S9mix
Method: as §1, §2, §3, §4, §5
as §3, with “Compound 8” for “each sample”, “3)” for “4)”, “Compound 8” for “a sample to be examined”, “Compound 8,” for “a sample to be examined,”

[5] = target: T2, amyloid (amylin) (Homo sapiens, UniProt P10997); assay: Inhibition of binding of Thioflavin T to amyloid derived from amylin; conditions: Thioflavin T 5 μmol/L, amyloid 2.6 μmol/L
T2 construct: Amylin (human) (manufactured by Wako) was dissolved in phosphate buffer (pH 7.4); purchased Wako
T2 sequence (P10997 34-70 limits assumed): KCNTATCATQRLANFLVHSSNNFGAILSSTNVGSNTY
Method: Amylin is an amyloid accumulating in pancreas of type II diabetes.
(3) The amyloid suspension was dissolved in 50 mM phosphate buffer (pH 7.4) at a concentration of amylin of 15 μM.
(4) Samples in which each compound for evaluation and amyloid were dissolved in a 50 mM phosphate buffer (pH 7.4) at final concentrations shown in Table 9 were prepared.
(5) A sample in which 100 μL of 50 mM phosphate buffer (pH 7.4) and 50 μL of 50 mM glycin-NaOH buffer (pH 8.5) were mixed was made as a blank, and subjected to the same procedure as in (4) and used for a calculation of inhibition ratio (hereinafter referred to as BG).
(6) The microplate filled with the sample solutions was left to stand at room temperature for 30 hours. Then, fluorescence strength of each sample solution was measured (measurement conditions: excitation wavelength of 446nm, emission wavelength of 490 nm) with microplate reader (type: SPECTRA MAX GEMINI XS, manufactured by Molecular Devices) (hereinafter, A denotes the fluorescence strength in a sample with zero (0) concentration of each compound for evaluation, and B denotes the fluorescence strength in a sample with 1.5 μmol/L or higher concentration of each compound for evaluation).
(7) Using the fluorescence strength measured above in (6), the following formula (5): […]
was used to determine the inhibition ratio.

[6] = Partition coefficient based on the octanol extraction method (logPoctanol); conditions: octanol / 10 mmol/L phosphate buffer (pH 7.4), radioactivity count
Method: 10 μL each of the prepared sample solution was respectively added to 2 mL of octanol, further, 2 mL of 10 mmol/L phosphate buffer (pH 7.4) was added, and stirred for 30 seconds. […] Using the obtained radioactivity count, log Poctanol was calculated in accordance with the equation (2).

[7] = Transferability into brain and clearance (Example I-16, Comparative Example I-7); type: in vivo, male Wistar rats; conditions: rats, intravenous injection, two animals
Method: Using Compound 6, a time course change of radioactive accumulation in brain of male Wistar rats (7-week old) was measured.
Also, radioactivity (hereinafter referred to as B in this Example) of 0.05 mL of a 1000-fold diluted solution of the injected solution was measured in the same manner as above. Using these measurement results, radioactive accumulation per unit weight of brain (% ID/g) at the respective time points was calculated in accordance with the following formula (3).

[8] = Transferability into brain and clearance (Examples II-11, II-12, Comparative Example II-1); conditions: rats, intravenous injection, three animals
Method: Using the Compounds 10 and 11, a time course change of radioactive accumulation in brain of male Wistar rats (7-week old) was measured.
The rats were sacrificed by bleeding from abdominal artery, and brains were removed and subjected to measurement of mass of brains and further subjected to measurement of radioactivity (hereinafter referred to as A in this Example) with a single channel analyzer (detector type: SP-20 manufactured by OHYO KOKEN KOGYO Co., Ltd.) 2, 5, 30 and 60 minutes after the injection. Also, radioactivity (hereinafter referred to as B in this Example) of the rest of the whole body was measured in the same manner as above. Using these measurement results, radioactive accumulation per unit weight of brain (% ID/g) at the respective time points were calculated in accordance with the following formula (4).
Three animals were used for experiment at the respective time points.

[9] = Table 6, 7 dosages (geometric ratio 4)
[10] = up to 5000 μg/plate (geometric ratio 4)
[11] = Table 8, 7 dosages (geometric ratio 3)

T1 sequence (P05067 672-711 limits assumed): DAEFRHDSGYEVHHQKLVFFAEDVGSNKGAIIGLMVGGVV

IC50 [1]: 0.0101 µM
Compound: Nc1ccc(-c2nc3ccccc3s2)cc1I [3′-I-BTA-0, 2-(3′-Iodo-4′-aminophenyl)benzothiazole, reference compound]

Compound: Oc1ccc(-c2cn3cc(Br)ccc3n2)cc1 [Compound 1, 6-bromo-2-(4′-hydroxyphenyl)imidazo[1,2-a]pyridine]
IC50 [1]: 0.0044 µM | Mutagenicity, TA98, with addition of S9mix [2, 9]: Negative | Mutagenicity, TA98, without addition of S9mix [2, 9]: Negative | Mutagenicity, TA100, with addition of S9mix [3, 9]: Negative | Mutagenicity, TA100, without addition of S9mix [3, 9]: Negative | Judgment in the Ames test (gene mutagenicity) [4, 10]: negative | Inhibition ratio (%) of binding of amyloid (amylin) to Thioflavin T ([5]; compound 1.5 μmol/L): 8.7% | Inhibition ratio (%) of binding of amyloid (amylin) to Thioflavin T ([5]; compound 15 μmol/L): 41.3% | Inhibition ratio (%) of binding of amyloid (amylin) to Thioflavin T ([5]; compound 30 μmol/L): 27.0%

Compound: Oc1ccc(-c2cn3cc(I)ccc3n2)cc1 [Compound 2, 2-(4′-hydroxyphenyl)-6-iodoimidazo[1,2-a]pyridine]
IC50 [1]: 0.046 µM | Mutagenicity, TA98, with addition of S9mix [2, 9]: Negative | Mutagenicity, TA98, without addition of S9mix [2, 9]: Negative | Mutagenicity, TA100, with addition of S9mix [3, 9]: Negative | Mutagenicity, TA100, without addition of S9mix [3, 9]: Negative | Judgment in the Ames test (gene mutagenicity) [4, 10]: negative | Inhibition ratio (%) of binding of amyloid (amylin) to Thioflavin T ([5]; compound 1.5 μmol/L): 11.2% | Inhibition ratio (%) of binding of amyloid (amylin) to Thioflavin T ([5]; compound 15 μmol/L): 16.3% | Inhibition ratio (%) of binding of amyloid (amylin) to Thioflavin T ([5]; compound 30 μmol/L): 32.0%

IC50 [1]: 0.0544 µM
Compound: Oc1ccc(-c2cn3cc(OCCCF)ccc3n2)cc1 [Compound 3, 6-(3′-fluoropropoxy)-2-(4′-hydroxyphenyl)imidazo[1,2-a]pyridine]

Compound: Oc1ccc(-c2cn3cc(I)cnc3n2)cc1 [Compound 4, 2-(4′-hydroxyphenyl)-6-iodoimidazo[1,2-a]pyrimidine]
IC50 [1]: 0.0541 µM | Mutagenicity, TA98, with addition of S9mix [2, 9]: Negative | Mutagenicity, TA98, without addition of S9mix [2, 9]: Negative | Mutagenicity, TA100, with addition of S9mix [3, 9]: Negative | Mutagenicity, TA100, without addition of S9mix [3, 9]: Negative | Judgment in the Ames test (gene mutagenicity) [4, 10]: negative

Compound: Oc1ccc(-c2cn3cc([125I])ccc3n2)cc1 [Compound 5, [^125I]-2-(4′-hydroxyphenyl)-6-iodoimidazo[1,2-a]pyridine]
logPoctanol value [6]: 1.6

IC50 [1]: 0.0254 µM
Compound: Cc1ccc2nc(-c3ccc(N(C)C)cc3)sc2c1 [Compound 6-Me-BTA-2, 6-methyl-2-[4′-(N,N-dimethylamino)phenyl]benzothiazole, reference compound]

Compound: Oc1ccc(-c2cn3cc(I)ncc3n2)cc1 [Compound 8, 2-(4′-hydroxyphenyl)-6-iodoimidazo[1,2-a]pyrazine]
Mutagenicity, TA98, with addition of S9mix [2, 11]: Negative | Mutagenicity, TA98, without addition of S9mix [2, 11]: Negative | Mutagenicity, TA100, with addition of S9mix [3, 11]: Negative | Mutagenicity, TA100, without addition of S9mix [3, 11]: Negative | Judgment in the Ames test (gene mutagenicity) ([4]; up to 5000 μg/plate (geometric ratio 3)): negative

logPoctanol value [6]: 1.7
Compound: Oc1ccc(-c2cn3cc([123I])cnc3n2)cc1 [Compound 9, [^123I]-2-(4′-hydroxyphenyl)-6-iodoimidazo[1,2-a]pyrimidine]

IC50 [1]: > 1 µM
Compound: Nc1c(/N=N/c2ccc(-c3ccc(/N=N/c4cc(S(=O)(=O)O)c5ccccc5c4N)cc3)cc2)cc(S(=O)(=O)O)c2ccccc12 [Congo-Red, reference compound]

logPoctanol value [6]: 2.1
Compound: CN(C)c1ccc(-c2cn3cc([125I])ccc3n2)cc1 [[^125I]-IMPY, reference compound]

Radioactive accumulation in brain per unit weight ([7]; after 2 min.): 1.02 % ID/g | Radioactive accumulation in brain per unit weight ([7]; after 5 min.): 0.99 % ID/g | Radioactive accumulation in brain per unit weight ([7]; after 30 min.): 0.20 % ID/g | Radioactive accumulation in brain per unit weight ([7]; after 60 min.): 0.08 % ID/g | Radioactive accumulation in brain per unit weight ([8]; after 2 min.): 1.19 % ID/g | Radioactive accumulation in brain per unit weight ([8]; after 5 min.): 0.97 % ID/g | Radioactive accumulation in brain per unit weight ([8]; after 30 min.): 0.23 % ID/g | Radioactive accumulation in brain per unit weight ([8]; after 60 min.): 0.09 % ID/g
Compound: CN(C)c1ccc(-c2cn3cc([123I])ccc3n2)cc1 [^123I-IMPY, reference compound]
